Source: US20090326037A1 (priority 2005, published 2009)
Structures can show the parent of a compound that is named as a salt.

Test system: influenza A/Singapore/1/57 virus
Assay: microbe, parasite or virus in culture
Type: cell-based
[1] = Influenza A virus, MDCK, read-out: percent of inhibition of viral reproduction

## CCOC(=O)c1c(CSc2ccccc2)n(C)c2cc(Br)c(O)c(CN(C)C)c12 [Arbidol, 1-methyl-2-phenylthiomethyl-3-carbethoxy-4-dimethylaminomethyl-5-oxy-6-bromindol hydrochloride]
A or C 5 μg/ml + Oseltamivir 4.1 μg, added 2 hours after infection
  Percent of inhibition of OD 490: 100%
A or C 5 μg/ml + Oseltamivir 12.3 μg, added 2 hours after infection
  Percent of inhibition of OD 490: 98%
A or C 5 μg/ml + Oseltamivir 41 μg, added 2 hours after infection
  Percent of inhibition of OD 490: 100, 100%
A or C 10 μg/ml + Oseltamivir 0.4 μg, added 2 hours after infection
  Percent of inhibition of OD 490: 70%
A or C 10 μg/ml + Oseltamivir 1.2 μg, added 2 hours after infection
  Percent of inhibition of OD 490: 85%
A or C 10 μg/ml + Oseltamivir 4.1 μg, added 2 hours after infection
  Percent of inhibition of OD 490: 100%
A or C 10 μg/ml + Oseltamivir 12.3 μg, added 2 hours after infection
  Percent of inhibition of OD 490: 100%
A or C 10 μg/ml + Oseltamivir 41 μg, added 2 hours after infection
  Percent of inhibition of OD 490: 100%
A or C 10 μg/ml alone (Oseltamivir 0), added 2 hours after infection
  Percent of inhibition of OD 490: 20%
A or D 1 μg/ml + Amantadin 0.3 μg/ml, added 30 min prior to infection
  Percent of inhibition of OD 490: 30%
A or D 1 μg/ml + Amantadin 1 μg/ml, added 30 min prior to infection
  Percent of inhibition of OD 490: 30%
A or D 1 μg/ml + Amantadin 5 μg/ml, added 30 min prior to infection
  Percent of inhibition of OD 490: 52%
A or D 1 μg/ml + Amantadin 10 μg/ml, added 30 min prior to infection
  Percent of inhibition of OD 490: 59%
A or D 1 μg/ml + Remantadin 0.3 μg/ml, added 30 min prior to infection
  Percent of inhibition of OD 490: 31%
A or D 1 μg/ml + Remantadin 1 μg/ml, added 30 min prior to infection
  Percent of inhibition of OD 490: 33%
A or D 1 μg/ml + Remantadin 5 μg/ml, added 30 min prior to infection
  Percent of inhibition of OD 490: 50%
A or D 1 μg/ml + Remantadin 10 μg/ml, added 30 min prior to infection
  Percent of inhibition of OD 490: 59%
A or D 1 μg/ml alone (Amantadin 0), added 30 min prior to infection
  Percent of inhibition of OD 490: 30%
A or D 1 μg/ml alone (Remantadin 0), added 30 min prior to infection
  Percent of inhibition of OD 490: 30%
A or D 5 μg/ml + Amantadin 0.3 μg/ml, added 30 min prior to infection
  Percent of inhibition of OD 490: 60%
A or D 5 μg/ml + Amantadin 1 μg/ml, added 30 min prior to infection
  Percent of inhibition of OD 490: 68%
A or D 5 μg/ml + Amantadin 5 μg/ml, added 30 min prior to infection
  Percent of inhibition of OD 490: 74%
A or D 5 μg/ml + Amantadin 10 μg/ml, added 30 min prior to infection
  Percent of inhibition of OD 490: 81%
A or D 5 μg/ml + Remantadin 0.3 μg/ml, added 30 min prior to infection
  Percent of inhibition of OD 490: 63%
A or D 5 μg/ml + Remantadin 1 μg/ml, added 30 min prior to infection
  Percent of inhibition of OD 490: 71%
A or D 5 μg/ml + Remantadin 5 μg/ml, added 30 min prior to infection
  Percent of inhibition of OD 490: 74%
A or D 5 μg/ml + Remantadin 10 μg/ml, added 30 min prior to infection
  Percent of inhibition of OD 490: 82%
A or D 5 μg/ml alone (Amantadin 0), added 30 min prior to infection
  Percent of inhibition of OD 490: 38%
A or D 5 μg/ml alone (Remantadin 0), added 30 min prior to infection
  Percent of inhibition of OD 490: 38%
A or D 10 μg/ml + Amantadin 0.3 μg/ml, added 30 min prior to infection
  Percent of inhibition of OD 490: 77%
A or D 10 μg/ml + Amantadin 1 μg/ml, added 30 min prior to infection
  Percent of inhibition of OD 490: 81%
A or D 10 μg/ml + Amantadin 5 μg/ml, added 30 min prior to infection
  Percent of inhibition of OD 490: 82%
A or D 10 μg/ml + Amantadin 10 μg/ml, added 30 min prior to infection
  Percent of inhibition of OD 490: 85%
A or D 10 μg/ml + Remantadin 0.3 μg/ml, added 30 min prior to infection
  Percent of inhibition of OD 490: 78%
A or D 10 μg/ml + Remantadin 1 μg/ml, added 30 min prior to infection
  Percent of inhibition of OD 490: 80%
A or D 10 μg/ml + Remantadin 5 μg/ml, added 30 min prior to infection
  Percent of inhibition of OD 490: 82%
A or D 10 μg/ml + Remantadin 10 μg/ml, added 30 min prior to infection
  Percent of inhibition of OD 490: 86%
A or D 10 μg/ml alone (Amantadin 0), added 30 min prior to infection
  Percent of inhibition of OD 490: 67%
A or D 10 μg/ml alone (Remantadin 0), added 30 min prior to infection
  Percent of inhibition of OD 490: 67%
Arbidol 3 μg/ml + Ribavirin 1 μg/ml
  percent of inhibition of viral reproduction: 19%
Arbidol 3 μg/ml + Ribavirin 3 μg/ml
  percent of inhibition of viral reproduction: 30%
Arbidol 3 μg/ml + Ribavirin 10 μg/ml
  percent of inhibition of viral reproduction: 52%
Arbidol 3 μg/ml + Ribavirin 15 μg/ml
  percent of inhibition of viral reproduction: 54%
Arbidol 10 μg/ml + Ribavirin 1 μg/ml
  percent of inhibition of viral reproduction: 26%
Arbidol 10 μg/ml + Ribavirin 3 μg/ml
  percent of inhibition of viral reproduction: 35%
Arbidol 10 μg/ml + Ribavirin 10 μg/ml
  percent of inhibition of viral reproduction: 85%
Arbidol 10 μg/ml + Ribavirin 15 μg/ml
  percent of inhibition of viral reproduction: 82%
Arbidol 15 μg/ml + Ribavirin 1 μg/ml
  percent of inhibition of viral reproduction: 43%
Arbidol 15 μg/ml + Ribavirin 3 μg/ml
  percent of inhibition of viral reproduction: 41%
Arbidol 15 μg/ml + Ribavirin 10 μg/ml
  percent of inhibition of viral reproduction: 82%
Arbidol 15 μg/ml + Ribavirin 15 μg/ml
  percent of inhibition of viral reproduction: 80%
Arbidol 20 μg/ml + Ribavirin 1 μg/ml
  percent of inhibition of viral reproduction: 65%
Arbidol 20 μg/ml + Ribavirin 3 μg/ml
  percent of inhibition of viral reproduction: 68%
Arbidol 20 μg/ml + Ribavirin 10 μg/ml
  percent of inhibition of viral reproduction: 80%
Arbidol 20 μg/ml + Ribavirin 15 μg/ml
  percent of inhibition of viral reproduction: 82%
[1]
  inhibition at 3 µg/mL: < 0%
  inhibition at 10 µg/mL: 23%
  inhibition at 15 µg/mL: 40%
  inhibition at 20 µg/mL: 55%
Combination of 3 μg/ml of arbidol and 3.3 mg of zanamivir (oseltamivir), 2 hours after infection
  inhibition of the virus: 90%
